One series has as its system MRSA-1707. The experiment in a line: MIC susceptibility assay (broth microdilution). The conditions noted are these: 16 h; for MIC: Staphylococcus aureus, MRSA, read-out: MIC MRSA-1707, planktonic growth inhibition, 16 h, 37° C. (In general: Broth dilution looks for growth in wells or tubes with falling amounts of substance.)
The test system of another series is MRSE 35984. The experiment in a line: MIC susceptibility assay (broth microdilution). The conditions noted are these: Staphylococcus epidermidis, MRSE, 16 h, read-out: MIC MRSE 35984.
The subject of another series is human red blood cells. The series can be described thus: Hemolysis assay with red blood cells. The method, then: Hemolysis assays are used to determine the membrane-lysis activity of a compound, which is of particular interest to this work as membrane-lysing agents (e.g., QACs) can eradicate biofilms.
Cytotoxicity Assay against HEK-293 Cells.^48 The viability of HEK-293 cells was assessed by the MTT assay. The cells were cultured in DMEM medium containing 10% fetal bovine serum and 100 U/mL penicillin and streptomycin. The cells (10^4 cells/well) were seeded onto a 96-well plate and maintained at 37° C. in a humidified incubator under 5% CO2 overnight. […] After incubation at 37° C. for 72 hours, 10 μL of MTT (5 mg/mL) in PBS was added to each well and incubated for 4 hours, followed by the aspiration of the medium. Dimethyl sulfoxide (DMSO, 100 μL) was then added to each well to dissolve the MTT in the wells, and the plate was agitated for 1 hour. The optical density (OD) was measured at 570 nm using a UV/vis microplate spectrophotometer (BioTek). The percent inhibition was calculated as follows: Inhibition (%)=(1−test OD570/non-treated OD570)×100%. The data were analyzed by Origin. Hemolysis Assay with Red Blood Cells. […] The washing was repeated three times with the buffer. In 96-well plate, test compounds were added to the buffer from DMSO stocks. […] The plate was then incubated for 1 hour at 37° C. After incubation, the plate was centrifuged for 5 minutes at 3,500 rpm before 80 μL of the supernatant was transferred to another 96-well plate to obtain an optical density (OD) read at 405 nm. DMSO served as the negative control (0% hemolysis) while Triton X served as the positive control (100% hemolysis) in these experiments. The percent hemolysis was calculated as (OD405 of the compound treated RBCs−OD405 DMSO control)/(OD405 Triton X treated RBCs−OD405 buffer) from three independent experiments.

Series [1] has as its system isdB, sfaA, sbnC, MW0695 transcripts in MRSA-1707 biofilms. The conditions noted are these: at 5 μM, reported earlier; cited from earlier work.
The test system of another series is MRSA-1707 biofilms. The series can be described thus: Calgary Biofilm Device (CBD) assay. The conditions noted are these: Staphylococcus aureus, read-out: MRSA-1707 MBC.
The subject of the next series is MRSE 35984 biofilms. The experiment in a line: Calgary Biofilm Device (CBD) assay. The conditions noted are these: Staphylococcus epidermidis, MRSE, read-out: MRSE 35984 MBC.
The subject of series [2] is E. faecalis OG1RF biofilms. The experiment in a line: Calgary Biofilm Device (CBD) assay. As to conditions: Enterococcus faecalis, OG1RFBIOFILMS, read-out: E.faecalis OG1RF MBC.
Another series relates to MRSA-44. The series can be described thus: MIC susceptibility assay (broth microdilution). The conditions noted are these: Staphylococcus aureus, 16 h, read-out: MIC MRSA-44.
A further series deals with E. faecalis OG1RF. The experiment in a line: MIC susceptibility assay (broth microdilution). As to conditions: Enterococcus faecalis, 16 h, read-out: MIC E. faecalis OG1RF.
The test system of the next series is S. aureus. The series can be described thus: Antibacterial MIC, initial phenazine collection. Type of series: cell-based. As to conditions: Staphylococcus aureus; initial discovery; read-out: MIC against S. aureus.
The test system of another series is S. epidermidis. The experiment in a line: Antibacterial MIC, initial phenazine collection. Type of series: cell-based. The conditions noted are these: Staphylococcus epidermidis; initial discovery; read-out: MIC against S. epidermidis.
The next series has as its system VRE 700221 biofilms. The experiment in a line: Calgary Biofilm Device (CBD) assay. As to conditions: Enterococcus, read-out: VRE 700221 MBC.
The next series concerns Mtb CDC1551. The experiment in a line: microbe, parasite or virus in culture. As to conditions: Mycobacterium tuberculosis, CDC1551, 120 h. It is filed as cell-based, Mycobacterium tuberculosis.
A short description of series [3]: pKa determination by UV-vis spectroscopy. It is filed as physicochemical. The method, then:
(c) pKa determination of select HP analogues.^36 Dissociation constants (pKa) for select HP analogues were determined using UV-vis spectroscopy and the Henderson-Hasselbalch equation. Buffers were prepared using potassium phosphate monobasic (KH2PO4) and sodium phosphate dibasic ([…]) in a 1:1 solution of water:methanol to achieve a pH range of 4.07 to 9.66 (ammonium hydroxide was added to prepare buffer pH over 9.80). Compounds were added from 10 mM stock solutions in dimethyl sulfoxide (25 μL) to 1975 μL of each buffer to each evaluate analogue to yield a final compound concentration of 125 μM. Full spectral scans were performed from 200 to 800 nm in 2 nm increments to determine λmax values for the protonated phenol (HA) and the deprotonated phenolate species (A^−). The change in absorption at each determined λmax in relation to pH was monitored in each buffer and plotted as absorbance versus pH for each species. The pKa was first estimated by determining the pH of the point of intersection of the two linear curves. The visual estimation was confirmed by plotting pH versus log [A^−/HA]. The resulting plot yielded a linear regression line with a Y-intercept corresponding to a calculated pKa value.

A further series has as its system Mtb H37Ra. The experiment in a line: MIC assay for Mtb H37Ra. The conditions noted are these: seven days, 37° C.
A further series has as its system HepG2 cells. The series can be described thus: Alamar Blue cytotoxicity assay, HepG2. As to conditions: read-out: Hep G2 Cytotox. (IC50), 24-h. In general terms: The colour change of resazurin is a common sign of viable cells or microbes.
The test system of another series is HeLa cells. The series can be described thus: LDH release assay for HeLa cytotoxicity. As to conditions: read-out: HeLa Cell Cytotox. (IC50), 24-h, tested at 25, 50 and 100 μM. (LDH leaks from cells whose membrane has failed.)
Series [4] has as its system isdB, sfaA, sbnC, MW0695 transcripts in MRSA-1707 biofilms. The experiment in a line: RT-qPCR of iron uptake genes in MRSA biofilms. The conditions noted are these: 4 h treatment at 1 μM or 1/10×MBEC.
In a further series the test system is J774 MΦ. The experiment in a line: Alamar Blue cytotoxicity assay, J774 macrophages. The conditions noted are these: read-out: J774 MΦ Cytotox. (IC50), 24-h.
The subject of the next series is MRSA 1. The experiment in a line: MIC assay against clinical isolate. The conditions noted are these: Staphylococcus aureus. Type of series: cell-based, S. aureus.
A further series has as its system MRSA 2. The experiment in a line: MIC assay against clinical isolate. Type of series: cell-based, S. aureus. The conditions noted are these: Staphylococcus aureus.
Another series relates to S. aureus 129. The experiment in a line: MIC assay against clinical isolate. Type of series: cell-based. The conditions noted are these: Staphylococcus aureus.
A further series deals with S. aureus 147. The series can be described thus: MIC assay against clinical isolate. It is filed as cell-based. As to conditions: Staphylococcus aureus, 147; clinical isolate; read-out: MIC S. aureus 147.
For the next series, the system named is S. aureus 138. The series can be described thus: MIC assay against clinical isolate. It is filed as cell-based. The conditions noted are these: Staphylococcus aureus.
The test system of another series is S. aureus 156. The experiment in a line: MIC assay against clinical isolate. It is filed as cell-based. The conditions noted are these: Staphylococcus aureus, 156, read-out: MIC S. aureus 156.
The test system of series [5] is S. aureus strain ATCC 29213. The series can be described thus: MIC against methicillin-susceptible strain. It is filed as cell-based. As to conditions: Staphylococcus aureus, ATCC29213; strain susceptible to methicillin.

Converted amounts (≈) assume the structure as drawn. “And” between values parts separate entries of the source, which are not always exact repeats. Equal values may be shown once. “Also recorded” adds a separate entry of the source. Marks after values point to notes of the source that are not given here.

Method for MRSA-44: (MIC values were further supported by spectrophotometric readings at OD600). The concentration range tested for each HP compound during this study was 0.05 to 50 μM. DMSO served as our vehicle and negative control in each microdilution MIC assay. DMSO was serially diluted with a top concentration of 0.5% v/v.

Consider `Oc1c(Br)c(Br)c(Br)c2nc3ccccc3nc12` [Compound 150], for which the melting point – broadly, the temperature of the solid-liquid transition – was in the range of 222 to 224 °C. Moreover, in the series with MRSA-1707, the MIC amounted to 0.1 µM (≈ 0.0433 µg/mL). The MIC with MRSE 35984 came to 0.3 µM (≈ 0.13 µg/mL).
`O=C(O)CN(CCN(CC(=O)O)CC(=O)O)CC(=O)O` [EDTA, ethylenediaminetetraacetic acid, reference compound]: the “% Hemolysis at 200 μM” value with human red blood cells (human, 1 h, pH 7.2) is recorded as at most 1%. Besides, the “up-regulation of panel of iron uptake genes” value in [1] is recorded as “did not upregulate this panel of iron uptake genes”. The MBC was above 2000 µM with MRSA-1707 biofilms, 1000 µM (≈ 292 µg/mL) in the series on MRSE 35984 biofilms and above 2000 µM in series [2]. The MIC in the series with MRSA-44 stood at 125 µM (≈ 36.5 µg/mL); with E. faecalis OG1RF it was 500 µM (≈ 146 µg/mL).
Take `Oc1c(Br)ccc2nc3ccccc3nc12` [Compound 1, 2-bromo-1-hydroxyphenazine, reference compound]: the MIC in the series with S. aureus turned out to be 6.25 µM (≈ 1.72 µg/mL); in the series with S. epidermidis it was 6.25 µM (≈ 1.72 µg/mL); in the series on MRSA-1707, 3.13 µM (≈ 0.861 µg/mL); in the series on MRSA-44, 3.13 µM (≈ 0.861 µg/mL); in the series with MRSE 35984 it was 3.13 µM (≈ 0.861 µg/mL); in the series on E. faecalis OG1RF, 18.8 µM (≈ 5.17 µg/mL).
With `c1ccc(CN(CCN(Cc2ccccn2)Cc2ccccn2)Cc2ccccn2)nc1` [TPEN, N,N,N′,N′-tetrakis(2-pyridinylmethyl)-1,2-ethanediamine, reference compound], the “% Hemolysis at 200 μM” value with human red blood cells (human RBCs, 1 hour, 37° C.) is on record as at most 1%. For the same compound, the “up-regulation of panel of iron uptake genes” value in series [1] is listed as “did not upregulate this panel of iron uptake genes”. Moreover, the results for the MBC (with MRSA-1707 biofilms; in the series with VRE 700221 biofilms; in [2]) were 375 µM (≈ 159 µg/mL), 188 µM (≈ 79.8 µg/mL) and 500 µM (≈ 212 µg/mL), respectively. Moreover, the MIC with MRSA-1707, with MRSA-44 and with E. faecalis OG1RF was 46.9 µM (≈ 19.9 µg/mL) in each case.
As to `Oc1c(Br)c(Cl)c(Br)c2nc3ccccc3nc12` [Compound 28, 2,4-Dibromo-3-chlorophenazin-1-ol], the MIC was 4.37 µM (≈ 1.7 µg/mL) in the series on Mtb CDC1551, 0.15 µM (≈ 0.0583 µg/mL) in the series on MRSA-1707 and 3.13 µM (≈ 1.22 µg/mL) in the series with E. faecalis OG1RF. The “% Hemolysis at 200 μM” value with human red blood cells (human RBCs, 1 hour, 37° C.) is reported as at most 1%. Moreover, in series [3], the pKa (usually the negative logarithm of the acid dissociation constant) is 5.93. In the series with Mtb H37Ra, the “MIC Mtb H37Ra” value was 6.25 µM (≈ 2.43 µg/mL). For the same compound, the MBC in the series with MRSA-1707 biofilms was found to be 50 µM (≈ 19.4 µg/mL); with MRSE 35984 biofilms it was 12.5 µM (≈ 4.86 µg/mL); in [2] it was 75 µM (≈ 29.1 µg/mL). Besides, the concentration for half-maximal inhibition (IC50) (in general, the concentration needed to halve the response being measured) in the series with HepG2 cells was above 200 µM; with HeLa cells, above 100 µM; in the series with J774 MΦ, above 200 µM. Also, the “MIC MRSA-1707” value against MRSA-1707 (planktonic growth inhibition, 37° C.) is 0.15^a μM and 0.15 μM. Besides, in [4], the “iron starvation / up-regulation of iron uptake genes in MRSA-1707 biofilms” value is recorded as “induction of iron starvation; also recorded: up-regulating iron uptake genes; also recorded: induced rapid iron starvation; also recorded: rapidly induce iron starvation”.
As for `Oc1cc(Cl)cc2nc3c(Cl)cc(Cl)cc3nc12` [Compound 24, 3,6,8-Trichlorophenazin-1-ol], the MIC in the series with Mtb CDC1551 came to 2.31 µM (≈ 0.692 µg/mL); in the series on MRSA-44, 0.3 µM (≈ 0.0899 µg/mL). Also, in the series with human red blood cells (human RBCs, 1 hour, 37° C.), the “% Hemolysis at 200 μM” value was at most 1%. Moreover, the “MIC Mtb H37Ra” value in the series with Mtb H37Ra was 3.13 µM (≈ 0.938 µg/mL). Further, the MBC in the series on MRSA-1707 biofilms is 18.8 µM (≈ 5.63 µg/mL). Moreover, the 50% inhibitory concentration (IC50) with HepG2 cells is above 200 µM; in the series on HeLa cells, above 100 µM; in the series on J774 MΦ it was above 200 µM.
As for `COc1cccc(OC)c1C(=O)N[C@@H]1C(=O)N2[C@@H]1SC(C)(C)[C@@H]2C(=O)O` [Methicillin, reference compound], the MIC against MRSA 1 was 37.5 µM (≈ 14.3 µg/mL); against MRSA 2 it was above 100 µM; with S. aureus 129 it was 37.5 µM (≈ 14.3 µg/mL); in the series on S. aureus 147 it was 6.25 µM (≈ 2.38 µg/mL); against S. aureus 138, 37.5 µM (≈ 14.3 µg/mL); with S. aureus 156, 37.5 µM (≈ 14.3 µg/mL). The MIC in series [5] turned out to be 0.78 µM (≈ 0.297 µg/mL).

The values above are taken from patent US12060334B2, “3-substituted phenazine derivatives as antimicrobial agents” (University of Florida Research Foundation, Incorporated, priority 2021, dated 2024).
